Assays:
[1] = tested on: Axin2; assay: qRT-PCR of Axin2 in adult cochlea after noise damage and drug treatment; format: in vivo, mouse; conditions: 3 days after drug treatment of noise-damaged animals, p<0.05
Procedure: (§1) RNA extraction and PCR. For the LCPs, the organoids were treated with Cell Recovery Solution for at 1 hour and TrypleE for 20 minutes, then frozen in RLT buffer. RNA extractions were performed using the RNeasy Micro Kit (QIAGEN) and cDNA generated using ImProm-II Reverse Transcription Kit (Promega). TaqMan Real-Time PCR was performed in triplicates using the TaqMan Gene Expression Master Mix (ThermoFisher Scientific) on a StepOne Real-Time PCR machine (ThermoFisher Scientific). Ordinary One-way Anova was used to assess statistical significance. A minimum of three biologically distinct samples were analyzed for each condition.
(§2) Round window drug administration. We used four-week-old mice weighing 12-15 g. The animals were anesthetized with ketamine ([…], intraperitoneally [i.p.]) and xylazine ([…], i.p.) prior to surgery. An incision was made posterior to the pinna near the external meatus to expose the otic bulla and subsequently the round window niche. pargyline and CHIR99021 dissolved in DMSO were diluted in polyethylene glycol 400 (Sigma) to obtain final concentrations of 0.1 and 5 mM. This solution (total volume 1 ul) was injected into the round window niche of the left ear. Polyethylene glycol 400 with 10% DMSO was injected into the right ear as a control. Gelfoam was placed on the niche to maintain the solution, and the wound was closed. […]

[2] = tested on: Hes1; assay: qRT-PCR of Hes1 in adult cochlea after noise damage and drug treatment; format: in vivo, mouse; conditions: 3 days after drug treatment of noise-damaged animals
Procedure: as §1, §2

[3] = tested on: active β-catenin; assay: Western blot for active β-catenin in differentiating LCPs; format: cell-based, mouse; conditions: western blot after 4 days of differentiation, relative to untreated control
Procedure: Western blot analysis. For protein collection, cells were washed twice with PBS and then lysed by lysis buffer (20 mM HEPES, 400 mM NaCl, 1 mM EDTA, 0.1% NP-40 and 10% Glycerol) supplemented with HALT protease and phosphatase inhibitors (Thermo Fisher Scientific, Waltham, MA). Lysates were then centrifuged at 13,000 g for 15 min at 4° C., and each supernatant was collected. Protein concentration was determined using the Pierce BCA Protein Assay Kit (Pierce Biotechnology, Rockford, IL). Proteins within each lysate were separated by SDS-PAGE (Bio-Rad Laboratories, Inc., Hercules, CA) and transferred to polyvinylidene difluoride membranes. After incubation with primary antibody, membranes were washed with Tris-buffered saline with Tween 20 and exposed to an appropriate horseradish peroxidase-conjugated secondary antibody (Santa Cruz Biotechnology, Santa Cruz, CA); immunoblot signals were detected with Pierce ECL Western blotting substrate or ECL plus (Thermo Fisher Scientific, Waltham, MA).
Active canonical Wnt signaling is facilitated by the nuclear translocation of β-catenin, which binds with transcription factors of the Tcf/Lef family to activate transcription. To further validate our RNA-sequencing data, we proceeded to examine the levels of active β-catenin using western blot after pargyline treatment. […] We also analyzed Wnt activity in the treated cells using a Tcf/Lef reporter assay.

[4] = tested on: Atoh1; assay: qRT-PCR of Atoh1 in adult cochlea after noise damage and drug treatment; format: in vivo, mouse; conditions: deaf adult cochlea relative to the control, 3 days after treatment, p<0.05
Procedure: as §1, §2

[5] = tested on: Lgr5-expressing cochlear progenitors cells (LCPs); assay: Proliferation of Lgr5+ cochlear progenitors (LCPs) in organoid culture; format: cell-based, mouse; conditions: first 10 days in culture, Lgr5-nGFP mice cells, combined with CHIR99021
Procedure: Isolation and expansion of inner ear Lgr5+ cells. A recently published protocol was used to derive organoids from inner ear stem cells [also referred to as Lgr5+ cochlear progenitors (LCPs) (McLean et al., 2017). Briefly, the organ of Corti was dissected from neonatal mice (postnatal days 2-5) in Hank's balanced salt solution and treated with Cell Recovery Solution (Corning) for 1 hour. The cochlear epithelium was then peeled from the underlying mesenchyme, collected and treated with TrypleE for 20 minutes at 37° C. The single cells were mechanically triturated, filtered ([…] cell strainer) and suspended in a Matrigel (Corning) dome for 3D culture. The cells were seeded in a 24-well plate, specifically at one cochlea per well of a 24-well plate.
For the drug screening experiments, the expanded cells were passaged into a 96 well plate to test varying drug combinations. All experiments were done in triplicate at minimum. Atoh1-nGFP cells were quantified after 10 days in culture. The cell colonies were incubated in Cell Recovery Solution for 1 hour and dissociated into single cells using TrypleE. The total cell number and percentage of GFP+ cells were quantified using fluorescence activated cell sorting (FACS).
We screened a collection of Lsd1 inhibitors over the first 10 days in culture (FIGS. 9A and 9B) to examine their effect on proliferation of LCPs (FIGS. 9C and 9D). […]

In the case of `Cc1c[nH]c(-c2cnc(NCCNc3ccc(C#N)cn3)nc2-c2ccc(Cl)cc2Cl)n1` [CHIR99021], the “Axin2 mRNA level” value [1] is reported as “significantly higher levels”, the “Hes1 mRNA level” value [2] is reported as “reduced levels” and the “active β-catenin, fold change” value [3] is reported as 2.95 fold. The “Atoh1 mRNA level” value [4] was “significantly elevated”.

With `CCCC(CCC)C(=O)O` [valproic acid] the “proliferation of Lgr5 cells (LCP cell division)” value [5] was 63%.

— patent US20240245702A1, “Inhibition of Lysine Demethylase 1 (Lsd1) Induces Differentiation of Hair Cells” (Massachusetts Eye and Ear Infirmary, priority 2018, published 2024)
